PubChem BioAssay (NCI)
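Cultured in 96-well plates, cells were exposed to test compound for 48 hours across five concentrations. TGI: concentration producing complete growth inhibition.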

How the values were obtained:
Experiment in all cases: NCI tumour cell line growth inhibition, 48 h
[1] = test system: SK-MEL-5 melanoma
[2] = test system: SNB-19 CNS
[3] = test system: DMS 114 small cell lung
[4] = test system: EKVX NSCLC
[5] = test system: SN12K1 renal
[6] = test system: A498 renal
[7] = test system: XF 498 CNS
[8] = test system: KM12 colon
[9] = test system: P388/ADR leukemia
[10] = test system: IGROV1 ovarian
[11] = test system: DMS 273 small cell lung
[12] = test system: SW-620 colon
[13] = test system: MALME-3M melanoma
[14] = test system: NCI-H23 lung
[15] = test system: HCC-2998 colon
[16] = test system: SNB-78 CNS
[17] = test system: MCF7 breast
[18] = test system: SF-539 CNS
[19] = test system: KM20L2 colon
[20] = test system: HCT-116 colon
[21] = test system: M19-MEL melanoma
[22] = test system: CAKI-1 renal
[23] = test system: HL-60(TB) leukemia
[24] = test system: UACC-62 melanoma
[25] = test system: NCI-H522 lung
[26] = test system: SN12C renal
[27] = test system: RXF 393 renal
[28] = test system: LOX IMVI melanoma
[29] = test system: OVCAR-4 ovarian
[30] = test system: UACC-257 melanoma
[31] = test system: OVCAR-5 ovarian
[32] = test system: SK-MEL-2 melanoma
[33] = test system: CCRF-CEM leukemia
[34] = test system: UO-31 renal
[35] = test system: HOP-18 NSCLC
[36] = test system: SF-295 CNS
[37] = test system: SK-OV-3 ovarian
[38] = test system: HCT-15 colon
[39] = test system: U251 CNS
[40] = test system: HOP-62 NSCLC
[41] = test system: A549 NSCLC
[42] = test system: MOLT-4 leukemia
[43] = test system: NCI-H460 lung
[44] = test system: OVCAR-8 ovarian
[45] = test system: SF-268 CNS
[46] = test system: SK-MEL-28 melanoma
[47] = test system: NCI-H226 lung
[48] = test system: K-562 leukemia
[49] = test system: P388 leukemia
[50] = test system: OVCAR-3 ovarian
[51] = test system: HOP-92 NSCLC
[52] = test system: DLD-1 colon
[53] = test system: SNB-75 CNS
[54] = test system: NCI/ADR-RES ovarian
[55] = test system: HT29 colon
[56] = test system: RPMI-8226 leukemia
[57] = test system: COLO 205 colon

What does the source list for `CC(=O)Oc1cc2c(cc1OC(C)=O)OCC(c1ccccc1)C2` (configuration not stated)?
TGI [1]: 39 µM; TGI [2]: 48.5 µM; TGI [3]: 32.3 µM; TGI [4]: 57.8 µM; TGI [5]: 38.6 µM; TGI [6]: 12.2 µM; TGI [7]: 25.3 µM; TGI [8]: 55.3 µM; TGI [9]: 11.7 µM; TGI [10]: 74.1 µM; TGI [11]: 102 µM; TGI [12]: 18.5 µM; TGI [13]: 37.9 µM; TGI [14]: 77.6 µM; TGI [15]: 65.5 µM; TGI [16]: 111 µM; TGI [17]: 66.8 µM; TGI [18]: 48.7 µM; TGI [19]: 61.1 µM; TGI [20]: 57.4 µM; TGI [21]: 45.7 µM; TGI [22]: 39.2 µM; TGI [23]: 9.01 µM; TGI [24]: 53.3 µM; TGI [25]: 7.47 µM; TGI [26]: 56.6 µM; TGI [27]: 30 µM; TGI [28]: 46 µM; TGI [29]: 55.4 µM; TGI [30]: 29.2 µM; TGI [31]: 61.7 µM; TGI [32]: 54.7 µM; TGI [33]: 15.1 µM; TGI [34]: 58.4 µM; TGI [35]: 63.2 µM; TGI [36]: 49.8 µM; TGI [37]: 72.3 µM; TGI [38]: 56.4 µM; TGI [39]: 29.5 µM; TGI [40]: 54.3 µM; TGI [41]: 39.9 µM; TGI [42]: 26.1 µM; TGI [43]: 57.9 µM; TGI [44]: 73.5 µM; TGI [45]: 52.2 µM; TGI [46]: 53.1 µM; TGI [47]: 48.5 µM; TGI [48]: 80.1 µM; TGI [49]: 9.97 µM; TGI [50]: 58.9 µM; TGI [51]: 25.3 µM; TGI [52]: 27.4 µM; TGI [53]: 26.6 µM; TGI [54]: 134 µM; TGI [55]: 98.3 µM; TGI [56]: 54.5 µM; TGI [57]: 47 µM
